Assay results: patent US20110144303A1, “Biologically Active Peptidomimetic Macrocycles” (AILERON Therapeutics, Inc., priority 2008, published 2011)
pKd: −log10 of the molar value. Where “and” joins values, the source holds several entries; their conditions need not be identical. Equal entries are not always repeated. Where two headings read alike, the source gives them in different places. One block for each compound: values may come before it. Starred links: 1 amine or outer side, 2 acyl side, 3 side chain; linkers in the order of their positions; H or OH if unused. Positions of bridges follow the written chain, without caps; N, C: chain ends. Non-standard residues stand in square brackets, D forms with d. Residues, ends and D or L forms follow the SMILES beside them. ξ: configuration not given here. S5 = C=CCCC[C@](C)(N)C(=O)O; Nle = CCCC[C@H](N)C(=O)O; ξαMeC = CC(N)(CS)C(=O)O; X1 = C(=CC[*:2])C[*:1]; X2 = C(CC[*:2])C[*:1]

Key:
[1] = Pepsin Stability: (E/S 1:50)
Source text: Table printed on a drawing sheet, Figure 12
(§1) Title: Pepsin Stability: (E/S 1:50)
The patent's description of the figure: FIG. 12 describes the comparative pepsin stability of SP-1 and SP-35 peptidomimetic macrocycles of the invention.
First reader's note: The title is printed over the plot below the table; the rate constants and half-lives describe degradation by pepsin, and the time points used are on the plot's Time (min) axis.

[2] = Pharmacokinetics of SP-1 and SP-35 in Rat following IV dose
Source text: Table printed on a drawing sheet, Figure 18
Title: Pharmacokinetics of SP-1 and SP-35 in Rat following IV dose
The patent's description of the figure: FIG. 18 illustrates the pharmacokinetic properties of SP-1 and SP-35 peptidomimetic macrocycles in rats.
First reader's note: The title stands over the plot above the table and applies to both: rat, IV dose.

GST-Bcl-2 [3] = test: Kd
Procedure: Table printed on a drawing sheet, Figure 8
The patent's description of the figure: FIG. 8 depicts binding properties to GST-Bcl-2 of SP-1 and SP-35 peptidomimetic macrocycles.
First copying reader's note: The Kd values belong to the plot beside the table, titled 'Saturation Binding Curves vs. 2 µM Receptor, 1x PBS + 5 mM CHAPS, 2.5% DMSO', whose legend names the receptor as GST-Bcl-2.
Where the first naming reader finds the target: description_of_the_figure: FIG. 8 depicts binding properties to GST-Bcl-2 of SP-1 and SP-35 peptidomimetic macrocycles.

GST-Bcl-XL = target: T1, GST-Bcl-XL (Homo sapiens, UniProt Q07817); test: Kd
T1 construct: GST
Procedure: Table printed on a drawing sheet, Figure 7
The patent's description of the figure: FIG. 7 depicts binding properties to GST-Bcl-XL of SP-1 and SP-35 peptidomimetic macrocycles.
First copying reader's note: The table stands beside a saturation binding plot (2 µM receptor, 1x PBS + 5 mM CHAPS, 2.5% DMSO) whose legend names GST-Bcl-xL as the receptor for both peptides.
Where the first naming reader finds the target: description_of_the_figure: FIG. 7 depicts binding properties to GST-Bcl-XL of SP-1 and SP-35 peptidomimetic macrocycles.

[4] = Pepsin Stability: (E/S 1:50); remark: listed apart in the source
Source text: Table printed on a drawing sheet, Figure 14
as §1
The patent's description of the figure: FIG. 14 describes the comparative pepsin stability of SP-33 and SP-34 peptidomimetic macrocycles of the invention.
First reader's note: The title is the heading of the plot printed under the table; the table gives the rate constants and half-lives of the pepsin digestion, fitted over the named time points.

[5] = Pepsin Stability: (E/S 1:50); remark: listed apart in the source
Source text: Table printed on a drawing sheet, Figure 13
as §1
The patent's description of the figure: FIG. 13 describes the comparative pepsin stability of SP-36 and SP-37 peptidomimetic macrocycles of the invention.
First reader's note: Each peptide appears twice (duplicate runs); the title is printed between the table and the plot of the same figure, and NC/NA are not defined on the sheet.

[6] = Pharmacokinetics of SP-43 and SP-42 in Rat following IV dose; details: in vivo
Source text: Table printed on a drawing sheet, Figure 20
Title: Pharmacokinetics of SP-43 and SP-42 in Rat following IV dose
The patent's description of the figure: FIG. 20 illustrates the pharmacokinetic properties of SP-42 and SP-43 peptidomimetic macrocycles in rats.
First reader's note: Pharmacokinetic parameters in rat after an IV dose; the table stands under a concentration-time plot that is not copied.

GST-Mcl-1 = test: Kd
Procedure: Table printed on a drawing sheet, Figure 4
The patent's description of the figure: FIG. 4 depicts binding properties to GST-Mcl-1 of SP-4 and SP-54 peptidomimetic macrocycles.
First copying reader's note: Kd values belong to the adjacent saturation binding plot (stapled peptides + GST-Mcl-1, 2 µM receptor, 1x PBS + 5 mM CHAPS, 2.5% DMSO).
Where the first naming reader finds the target: description_of_the_figure: FIG. 4 depicts binding properties to GST-Mcl-1 of SP-4 and SP-54 peptidomimetic macrocycles.

GST-Bcl-2 [7] = test: Kd; remark: listed apart in the source
Procedure: Table printed on a drawing sheet, Figure 5
The patent's description of the figure: FIG. 5 depicts binding properties to GST-Bcl-2 of SP-4 and SP-54 peptidomimetic macrocycles.
First copying reader's note: Kd values belong to the plot beside the table, titled 'Saturation Binding Curves vs. 2 µM Receptor, 1x PBS + 5 mM CHAPS, 2.5% DMSO', with GST-Bcl-2 as the receptor.
Where the first naming reader finds the target: description_of_the_figure: FIG. 5 depicts binding properties to GST-Bcl-2 of SP-4 and SP-54 peptidomimetic macrocycles.

[8] = Pharmacokinetics of SP-4 and SP-54 in Rats following IV dose
Source text: Table printed on a drawing sheet, Figure 19
Title: Pharmacokinetics of SP-4 and SP-54 in Rats following IV dose
The patent's description of the figure: FIG. 19 illustrates the pharmacokinetic properties of SP-4 and SP-54 peptidomimetic macrocycles in rats.
First reader's note: Pharmacokinetic parameters in rats after IV dosing; the table is printed under a concentration-time plot that is not copied.

T1 sequence (Q07817 whole entry, looked up): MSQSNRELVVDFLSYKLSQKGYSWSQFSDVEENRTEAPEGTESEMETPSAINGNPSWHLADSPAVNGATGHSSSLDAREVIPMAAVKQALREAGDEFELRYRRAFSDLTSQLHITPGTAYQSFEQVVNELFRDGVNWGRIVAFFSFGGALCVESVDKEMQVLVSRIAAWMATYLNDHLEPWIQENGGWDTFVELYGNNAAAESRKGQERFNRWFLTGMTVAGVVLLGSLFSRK

SMILES: CCCC[C@H](NC(=O)[C@]1(C)CCCC=CCCC[C@](C)(NC(=O)[C@H](C)NC(=O)[C@H](CC(C)C)NC(=O)[C@H](Cc2c[nH]cn2)NC(=O)[C@H](CCCNC(=N)N)NC(=O)[C@H](C)NC(=O)[C@@H](NC(=O)[C@H](CC(N)=O)NC(=O)[C@H](CCCNC(=N)N)NC(=O)[C@@H](NC(=O)[C@@H](NC(=O)[C@H](CC(=O)O)NC(C)=O)[C@@H](C)CC)[C@@H](C)CC)[C@@H](C)CC)C(=O)N[C@@H](C(C)C)C(=O)NCC(=O)N[C@@H](CC(=O)O)C(=O)N1)C(=O)N[C@@H](CC(=O)O)C(=O)N[C@@H](CCCNC(=N)N)C(=O)N[C@@H](CO)C(=O)N[C@H](C(N)=O)[C@@H](C)CC [SP-1, Ac-DIIRNIARHLA$VGD$NleDRSI-NH2] (Ac-DIIRNIARHLA[S5]VGD[S5][Nle]DRSI-NH2; staple 12-16)
- K1 min^-1 [1]: 0.0084 min⁻¹
- half-life^1 [1]: 1.38 h
- AUC,inf [2]: 72 µg·h/mL
- Vss [2]: 0.098 L/kg
- Vz [2]: 0.274 L/kg
- Cmax ([2]; rat, in vivo, iv): 37 µg/mL
- MRT ([2]; rat, in vivo, iv): 2.2 h
- half-life ([2]; rat, in vivo, iv): 4.3 h
- pKd (GST-Bcl-2 [3]): 5.80
- pKd (GST-Bcl-XL): 7.37

SMILES: CCCC[C@H](NC(=O)[C@@H]1CSCCCCSC[C@H](NC(=O)[C@H](C)NC(=O)[C@H](CC(C)C)NC(=O)[C@H](Cc2c[nH]cn2)NC(=O)[C@H](CCCNC(=N)N)NC(=O)[C@H](C)NC(=O)[C@@H](NC(=O)[C@H](CC(N)=O)NC(=O)[C@H](CCCNC(=N)N)NC(=O)[C@@H](NC(=O)[C@@H](NC(=O)[C@H](CC(=O)O)NC(C)=O)[C@@H](C)CC)[C@@H](C)CC)[C@@H](C)CC)C(=O)N[C@@H](C(C)C)C(=O)NCC(=O)N[C@@H](CC(=O)O)C(=O)N1)C(=O)N[C@@H](CC(=O)O)C(=O)N[C@@H](CCCNC(=N)N)C(=O)N[C@@H](CO)C(=O)N[C@H](C(N)=O)[C@@H](C)CC [SP-33, Ac-DIIRNIARHLA#c4VGD#c4NleDRSI-NH2] (Ac-DIIRNIARHLACVGDC[Nle]DRSI-NH2; linker 12-16 via X2)
- K1 min^-1 [4]: 0.054 min⁻¹
- K2 min^-1 [4]: 0.0046 min⁻¹
- half-life^1 [4]: 0.217 h
- half-life^2 [4]: 2.5 h

SMILES: CCCC[C@H](NC(=O)C1(C)CSCCCCSCC(C)(NC(=O)[C@H](C)NC(=O)[C@H](CC(C)C)NC(=O)[C@H](Cc2c[nH]cn2)NC(=O)[C@H](CCCNC(=N)N)NC(=O)[C@H](C)NC(=O)[C@@H](NC(=O)[C@H](CC(N)=O)NC(=O)[C@H](CCCNC(=N)N)NC(=O)[C@@H](NC(=O)[C@@H](NC(=O)[C@H](CC(=O)O)NC(C)=O)[C@@H](C)CC)[C@@H](C)CC)[C@@H](C)CC)C(=O)N[C@@H](C(C)C)C(=O)NCC(=O)N[C@@H](CC(=O)O)C(=O)N1)C(=O)N[C@@H](CC(=O)O)C(=O)N[C@@H](CCCNC(=N)N)C(=O)N[C@@H](CO)C(=O)N[C@H](C(N)=O)[C@@H](C)CC (stereo partly shown) [SP-34, Ac-DIIRNIARHLA$c4VGD$c4NleDRSI-NH2] (Ac-DIIRNIARHLA[ξαMeC]VGD[ξαMeC][Nle]DRSI-NH2; linker 12-16 via X2)
- K1 min^-1 [4]: 0.0019 min⁻¹
- half-life^1 [4]: 6 h

SMILES: CCCC[C@H](NC(=O)[C@@H]1CSCC=CCSC[C@H](NC(=O)[C@H](C)NC(=O)[C@H](CC(C)C)NC(=O)[C@H](Cc2c[nH]cn2)NC(=O)[C@H](CCCNC(=N)N)NC(=O)[C@H](C)NC(=O)[C@@H](NC(=O)[C@H](CC(N)=O)NC(=O)[C@H](CCCNC(=N)N)NC(=O)[C@@H](NC(=O)[C@@H](NC(=O)[C@H](CC(=O)O)NC(C)=O)[C@@H](C)CC)[C@@H](C)CC)[C@@H](C)CC)C(=O)N[C@@H](C(C)C)C(=O)NCC(=O)N[C@@H](CC(=O)O)C(=O)N1)C(=O)N[C@@H](CC(=O)O)C(=O)N[C@@H](CCCNC(=N)N)C(=O)N[C@@H](CO)C(=O)N[C@H](C(N)=O)[C@@H](C)CC [SP-36, Ac-DIIRNIARHLA#cVGD#cNleDRSI-NH2] (Ac-DIIRNIARHLACVGDC[Nle]DRSI-NH2; linker 12-16 via X1)
- K1 min^-1 [5]: 0.095 min⁻¹ and 0.082 min⁻¹
- K2 min^-1 [5]: 0.0290 min⁻¹ and 0.024 min⁻¹
- half-life^1 [5]: 7.3 min and 8.5 min
- half-life^2 [5]: 0.4 h and 0.483 h

- Cmax [6]: 41.2 µg/mL
- MRT [6]: 1.1 h
SMILES: CC(=O)N[C@@H](CCC(N)=O)C(=O)N[C@@H](CO)C(=O)N[C@@H](CCC(N)=O)C(=O)N[C@@H](CCC(N)=O)C(=O)N[C@H](C(=O)N[C@@H](Cc1ccccc1)C(=O)N[C@@H]1CCCCCCC=CCCC[C@@H](C(=O)N[C@@H](CCC(N)=O)C(=O)N[C@@H](CC(N)=O)C(N)=O)NC(=O)[C@H](CC(C)C)NC(=O)[C@H](CC(C)C)NC(=O)[C@H](CCCNC(=N)N)NC(=O)[C@H](Cc2c[nH]c3ccccc23)NC(=O)[C@H](CC(C)C)NC(=O)[C@H](CC(N)=O)NC1=O)[C@@H](C)O [SP-42, Ac-QSQQTF#r8NLWRLL#QN-NH2]

SMILES: CC[C@H](C)[C@H](NC(C)=O)C(=O)N[C@@H](Cc1c[nH]c2ccccc12)C(=O)N[C@H](C(=O)N[C@@H](C)C(=O)N[C@@H](CCC(N)=O)C(=O)N[C@@H](CCC(=O)O)C(=O)N[C@@H](CC(C)C)C(=O)N[C@@H](CCCNC(=N)N)C(=O)N[C@H]1CCCC=CCCC[C@@H](C(=O)N[C@@H](Cc2ccccc2)C(=O)N[C@@H](CC(N)=O)C(=O)N[C@@H](C)C(=O)N[C@@H](Cc2ccc(O)cc2)C(=O)N[C@@H](Cc2ccc(O)cc2)C(=O)N[C@@H](C)C(=O)N[C@@H](CCCNC(=N)N)C(=O)N[C@@H](CCCNC(=N)N)C(N)=O)NC(=O)[C@H](CC(=O)O)NC(=O)CNC(=O)[C@H]([C@@H](C)CC)NC1=O)[C@@H](C)CC [SP-54, Ac-IWIAQELR#IGD#FNAYYARR-NH2]
- pKd (GST-Mcl-1): 7.66
- pKd (GST-Bcl-2 [7]): 7.01
- AUC,inf [8]: 12.7 µg·h/mL
- Cl [8]: 0.241 L/h/kg
- Vss [8]: 0.126 L/kg
- Vz [8]: 1.206 L/kg
- Cmax ([8]; rat, in vivo, iv): 27.1 µg/mL
- MRT ([8]; rat, in vivo, iv): 0.52 h
- half-life ([8]; rat, in vivo, iv): 1 h
